Assay results from patent US20240190880A1 (THE REGENTS OF THE UNIVERSITY OF MICHIGAN, priority 2021, published 2024).

Molecular target: T1, ER (Homo sapiens, UniProt P03372)
T1 construct: host or cells: T47D and MCF7 human breast cancer cells
T1 sequence (P03372 1-595): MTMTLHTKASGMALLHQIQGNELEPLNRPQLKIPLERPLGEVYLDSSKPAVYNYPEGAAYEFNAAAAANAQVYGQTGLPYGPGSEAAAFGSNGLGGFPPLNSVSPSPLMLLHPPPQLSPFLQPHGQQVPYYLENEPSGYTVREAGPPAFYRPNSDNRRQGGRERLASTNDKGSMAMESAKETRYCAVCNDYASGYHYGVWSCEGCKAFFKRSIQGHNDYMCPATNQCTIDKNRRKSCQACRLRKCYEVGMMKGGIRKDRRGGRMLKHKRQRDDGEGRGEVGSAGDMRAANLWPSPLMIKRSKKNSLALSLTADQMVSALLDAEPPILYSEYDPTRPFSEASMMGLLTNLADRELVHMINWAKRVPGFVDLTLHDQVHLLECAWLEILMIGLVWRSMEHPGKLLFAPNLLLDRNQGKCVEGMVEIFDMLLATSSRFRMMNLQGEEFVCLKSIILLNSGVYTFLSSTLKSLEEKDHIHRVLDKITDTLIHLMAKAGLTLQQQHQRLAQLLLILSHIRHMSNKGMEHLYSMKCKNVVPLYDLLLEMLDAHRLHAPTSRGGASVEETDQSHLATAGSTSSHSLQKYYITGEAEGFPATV
Assay: ER degradation activity, in-cell western blot analysis in T47D cells
Format: cell-based
Conditions: compounds 16 hours, Table A does not say whether T47D or MCF7, read-out: Potency (DC50)
Summary of the method: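 T47D cells cultured in DMEM with 10% FBS, treated with compounds (final 0.5% DMSO) for 16 h. ER level measured by in-cell western with anti-rabbit-680/anti-mouse-800 near-infrared detection. Relative ER percentage calculated against untreated and DMSO-treated wells set as 100%.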

Row | DC50 [nM] | Structure (SMILES)
1 | > 100 | C[C@@H]1Cc2c([nH]c3ccccc23)[C@@H](c2ccc(C3=CCC(C(=O)N4CCC(N5Cc6cc7c(cc6C5)C(=O)N(C5CCC(=O)NC5=O)C7=O)CC4)CC3)cc2F)N1CC1(F)CC1 (stereo partly drawn) [E 486, 2-(2,6-dioxopiperidin-3-yl)-6-(1-(3′-fluoro-4′-((1R,3R)-2-((1-fluorocyclopropyl)methyl)-3-methyl-2,3,4,9-tetrahydro-1H-pyrido[3,4-b]indol-1-yl)-2,3,4,5-tetrahydro-[1,1′-biphenyl]-4-carbonyl)piperidin-4-yl)-6,7-dihydropyrrolo[3,4-f]isoindole-1,3(2H,5H)-dione]
2 | 10 to 100 | C[C@@H]1Cc2cc(O)ccc2[C@@H](c2c(F)cc(C3CCC(C(=O)N4CCC(N5Cc6cc7c(cc6C5)C(=O)N(C5CCC(=O)NC5=O)C7=O)CC4)CC3)cc2F)N1CC(F)F (stereo partly drawn) [E 487, 6-(1-(4-(4-((1S,3R)-2-(2,2-difluoroethyl)-6-hydroxy-3-methyl-1,2,3,4-tetrahydroisoquinolin-1-yl)-3,5-difluorophenyl)cyclohexane-1-carbonyl)piperidin-4-yl)-2-(2,6-dioxopiperidin-3-yl)-6,7-dihydropyrrolo[3,4-f]isoindole-1,3(2H,5H)-dione]
3 | 10 to 100 | O=C1CCC(N2C(=O)c3cc4c(cc3C2=O)CN(CC(=O)N2CCC(Oc3ccc([C@@H]5c6ccc(O)cc6CC[C@@H]5c5ccccc5)cc3)CC2)C4)C(=O)N1 (stereo partly drawn) [E 489, 2-(2,6-dioxopiperidin-3-yl)-6-(2-(4-(4-((1R,2S)-6-hydroxy-2-phenyl-1,2,3,4-tetrahydronaphthalen-1-yl)phenoxy)piperidin-1-yl)-2-oxoethyl)-6,7-dihydropyrrolo[3,4-f]isoindole-1,3(2H,5H)-dione]
4 | > 100 | O=C1CCC(N2C(=O)c3cc4c(cc3C2=O)CN(CC2CCC3(CC2)CCN(C(=O)c2ccc([C@@H]5c6ccc(O)cc6CC[C@@H]5c5ccccc5)cc2)CC3)C4)C(=O)N1 (stereo partly drawn) [E 492, 2-(2,6-dioxopiperidin-3-yl)-6-((3-(4-((1R,2S)-6-hydroxy-2-phenyl-1,2,3,4-tetrahydronaphthalen-1-yl)benzoyl)-3-azaspiro[5.5]undecan-9-yl)methyl)-6,7-dihydropyrrolo[3,4-f]isoindole-1,3(2H,5H)-dione]
5 | > 100 | O=C1CCC(N2C(=O)c3cc4c(cc3C2=O)CN(CC2CCC3(CC2)CN(C(=O)c2ccc([C@@H]5c6ccc(O)cc6CC[C@@H]5c5ccccc5)cc2)C3)C4)C(=O)N1 (stereo partly drawn) [E 493, 2-(2,6-dioxopiperidin-3-yl)-6-((2-(4-((1R,2S)-6-hydroxy-2-phenyl-1,2,3,4-tetrahydronaphthalen-1-yl)benzoyl)-2-azaspiro[3.5]nonan-7-yl)methyl)-6,7-dihydropyrrolo[3,4-f]isoindole-1,3(2H,5H)-dione]
6 | > 100 | O=C1CCC(N2C(=O)c3cc4c(cc3C2=O)CN(CC2CC3(CCN(C(=O)c5ccc([C@@H]6c7ccc(O)cc7CC[C@@H]6c6ccccc6)cc5)CC3)C2)C4)C(=O)N1 (stereo partly drawn) [E 494, 2-(2,6-dioxopiperidin-3-yl)-6-((7-(4-((1R,2S)-6-hydroxy-2-phenyl-1,2,3,4-tetrahydronaphthalen-1-yl)benzoyl)-7-azaspiro[3.5]nonan-2-yl)methyl)-6,7-dihydropyrrolo[3,4-f]isoindole-1,3(2H,5H)-dione]
7 | > 100 | O=C1CCC(N2C(=O)c3cc4c(cc3C2=O)CN(CC(=O)N2CCC3(CC2)CCN(C(=O)c2ccc([C@@H]5c6ccc(O)cc6CC[C@@H]5c5ccccc5)cc2)CC3)C4)C(=O)N1 (stereo partly drawn) [E 495, 2-(2,6-dioxopiperidin-3-yl)-6-(2-(9-(4-((1R,2S)-6-hydroxy-2-phenyl-1,2,3,4-tetrahydronaphthalen-1-yl)benzoyl)-3,9-diazaspiro[5.5]undecan-3-yl)-2-oxoethyl)-6,7-dihydropyrrolo[3,4-f]isoindole-1,3(2H,5H)-dione]
8 | > 100 | O=C1CCC(N2C(=O)c3cc4c(cc3C2=O)CN(CC(=O)N2CCC3(CC2)CN(C(=O)c2ccc([C@@H]5c6ccc(O)cc6CC[C@@H]5c5ccccc5)cc2)C3)C4)C(=O)N1 (stereo partly drawn) [E 496, 2-(2,6-dioxopiperidin-3-yl)-6-(2-(2-(4-((1R,2S)-6-hydroxy-2-phenyl-1,2,3,4-tetrahydronaphthalen-1-yl)benzoyl)-2,7-diazaspiro[3.5]nonan-7-yl)-2-oxoethyl)-6,7-dihydropyrrolo[3,4-f]isoindole-1,3(2H,5H)-dione]
9 | > 100 | O=C1CCC(N2C(=O)c3cc4c(cc3C2=O)CN(C2CC3CCC(C2)N3CC2CCN(c3ccc([C@@H]5c6ccc(O)cc6CC[C@@H]5c5ccccc5)cc3)CC2)C4)C(=O)N1 (stereo partly drawn) [E 497, 2-(2,6-dioxopiperidin-3-yl)-6-(8-((1-(4-((1R,2S)-6-hydroxy-2-phenyl-1,2,3,4-tetrahydronaphthalen-1-yl)phenyl)piperidin-4-yl)methyl)-8-azabicyclo[3.2.1]octan-3-yl)-6,7-dihydropyrrolo[3,4-f]isoindole-1,3(2H,5H)-dione]
10 | > 100 | O=C1CCC(N2C(=O)c3cc4c(cc3C2=O)CC2(C4)CN(CC3CCN(c4ccc([C@@H]5c6ccc(O)cc6CC[C@@H]5c5ccccc5)cc4)CC3)C2)C(=O)N1 (stereo partly drawn) [E 500, 2′-(2,6-dioxopiperidin-3-yl)-1-((1-(4-((1R,2S)-6-hydroxy-2-phenyl-1,2,3,4-tetrahydronaphthalen-1-yl)phenyl)piperidin-4-yl)methyl)-5′,7′-dihydro-1′H-spiro[azetidine-3,6′-cyclopenta[f]isoindole]-1′,3′(2′H)-dione]
11 | > 100 | O=C1CCC(N2C(=O)c3cc4c(cc3C2=O)CC2(C4)CN(C(=O)C3CCN(c4ccc([C@@H]5c6ccc(O)cc6CC[C@@H]5c5ccccc5)cc4)CC3)C2)C(=O)N1 (stereo partly drawn) [E 501, 2′-(2,6-dioxopiperidin-3-yl)-1-(1-(4-((1R,2S)-6-hydroxy-2-phenyl-1,2,3,4-tetrahydronaphthalen-1-yl)phenyl)piperidine-4-carbonyl)-5′,7′-dihydro-1′H-spiro[azetidine-3,6′-cyclopenta[f]isoindole]-1′,3′(2′H)-dione]
12 | > 100 | O=C1CCC(N2C(=O)c3cc4c(cc3C2=O)CC2(C4)CN(C(=O)CN3CC(Oc4ccc([C@@H]5c6ccc(O)cc6CC[C@@H]5c5ccccc5)cc4)C3)C2)C(=O)N1 (stereo partly drawn) [E 502, 2′-(2,6-dioxopiperidin-3-yl)-1-(2-(3-(4-((1R,2S)-6-hydroxy-2-phenyl-1,2,3,4-tetrahydronaphthalen-1-yl)phenoxy)azetidin-1-yl)acetyl)-5′,7′-dihydro-1′H-spiro[azetidine-3,6′-cyclopenta[f]isoindole]-1′,3′(2′H)-dione]
13 | > 100 | O=C1CCC(N2C(=O)c3cc4c(cc3C2=O)CC2(C4)CN(CC(=O)N3CC(Oc4ccc([C@@H]5c6ccc(O)cc6CC[C@@H]5c5ccccc5)cc4)C3)C2)C(=O)N1 (stereo partly drawn) [E 503, 2′-(2,6-dioxopiperidin-3-yl)-1-(2-(3-(4-((1R,2S)-6-hydroxy-2-phenyl-1,2,3,4-tetrahydronaphthalen-1-yl)phenoxy)azetidin-1-yl)-2-oxoethyl)-5′,7′-dihydro-1′H-spiro[azetidine-3,6′-cyclopenta[f]isoindole]-1′,3′(2′H)-dione]
14 | > 100 | O=C1CCC(N2Cc3cc4c(cc3C2=O)CN(CC2CN(CC3CCN(c5ccc([C@@H]6c7ccc(O)cc7CC[C@@H]6c6ccccc6)cc5)CC3)C2)C4=O)C(=O)N1 (stereo partly drawn) [E 504, 2-(2,6-dioxopiperidin-3-yl)-6-((1-((1-(4-((1R,2S)-6-hydroxy-2-phenyl-1,2,3,4-tetrahydronaphthalen-1-yl)phenyl)piperidin-4-yl)methyl)azetidin-3-yl)methyl)-2,3,6,7-tetrahydropyrrolo[3,4-f]isoindole-1,5-dione]
15 | > 100 | O=C1CCC(N2Cc3cc4c(cc3C2=O)CN(C2CN(CC3CCN(c5ccc([C@@H]6c7ccc(O)cc7CC[C@@H]6c6ccccc6)cc5)CC3)C2)C4=O)C(=O)N1 (stereo partly drawn) [E 505, 2-(2,6-dioxopiperidin-3-yl)-6-(1-((1-(4-((1R,2S)-6-hydroxy-2-phenyl-1,2,3,4-tetrahydronaphthalen-1-yl)phenyl)piperidin-4-yl)methyl)azetidin-3-yl)-2,3,6,7-tetrahydropyrrolo[3,4-f]isoindole-1,5-dione]
16 | > 100 | O=C1CCC(N2Cc3cc4c(cc3C2=O)CN(C2CCN(CC3CCN(c5ccc([C@@H]6c7ccc(O)cc7CC[C@@H]6c6ccccc6)cc5)CC3)CC2)C4=O)C(=O)N1 (stereo partly drawn) [E 506, 2-(2,6-dioxopiperidin-3-yl)-6-(1-((1-(4-((1R,2S)-6-hydroxy-2-phenyl-1,2,3,4-tetrahydronaphthalen-1-yl)phenyl)piperidin-4-yl)methyl)piperidin-4-yl)-2,3,6,7-tetrahydropyrrolo[3,4-f]isoindole-1,5-dione]
17 | > 100 | O=C1CCC(N2Cc3cc4c(cc3C2=O)C(=O)N(C2CCN(CC3CCN(c5ccc([C@@H]6c7ccc(O)cc7CC[C@@H]6c6ccccc6)cc5)CC3)CC2)C4)C(=O)N1 (stereo partly drawn) [E 507, 2-(2,6-dioxopiperidin-3-yl)-6-(1-((1-(4-((1R,2S)-6-hydroxy-2-phenyl-1,2,3,4-tetrahydronaphthalen-1-yl)phenyl)piperidin-4-yl)methyl)piperidin-4-yl)-2,3,5,6-tetrahydropyrrolo[3,4-f]isoindole-1,7-dione]
